pKi: −log10 of the molar value.
Tests used:
SSTR1 = SSTR1 (Homo sapiens, UniProt P30872); assay: SSTR receptor binding affinity (Ki), SSTR1; settings: read-out: SSTR Specificity Ki SSTR1
SSTR4 = SSTR4 (Homo sapiens, UniProt P31391); assay: SSTR receptor binding affinity (Ki), SSTR4; settings: read-out: SSTR Specificity Ki SSTR4
SSTR3 = SSTR3 (Homo sapiens, UniProt P32745); assay: SSTR receptor binding affinity (Ki), SSTR3; settings: read-out: SSTR Specificity Ki SSTR3
MTC = settings: cited from earlier work; for suppressing calcitonin secretion: MTC, commercially available somatostatin analogs; for reducing tumour size and/or increasing patient survival rate: treatment of MTC patients
[1] = test system: medullary thyroid carcinoma primary cultures; assay: Cell viability of MTC primary cultures (MTT); type: cell-based, human; settings: 10^−8 M, forty-eight hours; for cell viability, change vs. control (signed, negative = reduced): group B (lanreotide non-responsive) mean
Method: Primary cultured cells from 18 selected MTC samples were incubated in ninety six well plates for forty eight hours with each SSTR agonist at 10^−8 M. Control cells were treated with vehicle solution. Cell viability was measured by a colorimetric method among eight replicates from treated and untreated (control) primary cultured cells. […] Data are expressed as the mean±SE percent cell viability reduction vs. untreated control cells. *P<0.05, and **P<0.01 vs. control.
(§1) Tissue samples were surgically removed in accordance with the guidelines of the local comnmittees on human research. Thyroid tissue samples were obtained under sterile conditions and immediately minced in RPMI 1640 tissue culture medium. Tissues were incubated with 0.25% trypsin overnight at 4° C. and then dissociated using 0.35% collagenase (Sigma, Milano, ITALY) and 1% trypsin at 37° C. for sixty minutes. Cell suspensions were filtered through double layers of gaus(e and washed twice with serum-free F-12 Ham's Nutrient Modified Medium (F-12; Euroclone Ltd, Wetherby, UNITED KINGDOM). Tumor cells were re-suspended in F-12 with 10% fetal bovine serum and antibiotics, seeded in ninety-six well culture plates (˜2×10^4 cells/well) and incubated at 37° C. in a humidified atmosphere of 5% CO2 and 95% air according to known procedures (Zatelli, M. C. et al., Endocrinology, 2005, 146:2692-8). Approximately twenty-four hours later, the prepared cells were treated with the selected somatostatin agonist and were monitored for hormone secretion and overall viability. Informed consent of the patients was obtained for disclosing clinical investigation and performing the in vitro study.
The effects of the tested somatostatin analogs on medullary thyroid carcinoma primary culture cell viability were assessed with a Cell Proliferation Kit I MTT® (Roche Diagnostics GmbH, Mannheim, GERMANY) which employs a colorimetric method for determining the number of viable cells in proliferation assays. Primary cultured cells were plated in ninety-six multiwell plates (2×10^4 cells/well) and incubated for forty-eight hours in a medium supplemented with 10% fetal bovine serum in the presence or absence of each somatostatin analog at 10^−8M. Treatments were renewed after the first twenty-four hours of incubation.
In order to investigate the effects of somatostatin analogs on medullary thyroid carcinoma cell viability, an MTT assay was performed in primary cultures derived from the eighteen selected medullary thyroid carcinoma samples, treated with or without each somatostatin analog at […] for forty-eight hours. Percent cell viability reduction compared to a control in each primary culture under treatment with each somatostatin analog is reported in Table 6.

[2] = test system: medullary thyroid carcinoma primary cultures; assay: Calcitonin secretion by MTC primary cultures (IRMA); type: cell-based, human; settings: 10^−8 M, six hours
Method: Primary cultured cells from 18 selected MTC samples were incubated in ninety six well plates for six hours with each SSTR agonist at 10^−8 M. Control cells were treated with vehicle solution. Calcitonin levels in the conditioned medium were measured by immunoradiometric assay (IRMA) among eight replicates in the conditioned medium from treated and untreated (control) primary cultured cells. […] Data are expressed as the mean±SE percent hormone secretion inhibition vs. untreated control cells. *P<0.05 and **P<0.01 vs. control.
as §1
Calcitonin levels were measured in a conditioned medium from treated and untreated primary cultured cells with the calcitonin-U.S.-IRMA® kit (Biosource Europe, Nivelles, BELGIUM) after a six hour treatment with […] of the selected somatostatin analogs. The intra- and inter-assay variation coefficients were 1.9-2.7% and 1.9-3.3%, respectively. The detection limit was 0.8 pg/ml. Hormone assays were performed in duplicate of conditioned medium from treated cells. Results were obtained by determining the mean value among eight replicates.
In order to investigate the effects of somatostatin analogs on hormone secretion, calcitonin and CgA levels were measured in conditioned media collected from primary cultures derived from the selected eighteen medullary thyroid carcinoma treated with or without each somatostatin analog at 10^−8M for six hours.
According to this criterion, […] as “responders” (group A: primary cultures #3, #5, #6, #7, #11, #12, #13, #14, #15, #16) and nine as “non responders” (group B: primary cultures #1, #2, #4, #8, #9, #10, #17, #18).

SSTR2 = SSTR2 (Homo sapiens, UniProt P30874); assay: SSTR receptor binding affinity (Ki), SSTR2; settings: read-out: SSTR Specificity Ki SSTR2
SSTR2, sequence (P30874 whole entry): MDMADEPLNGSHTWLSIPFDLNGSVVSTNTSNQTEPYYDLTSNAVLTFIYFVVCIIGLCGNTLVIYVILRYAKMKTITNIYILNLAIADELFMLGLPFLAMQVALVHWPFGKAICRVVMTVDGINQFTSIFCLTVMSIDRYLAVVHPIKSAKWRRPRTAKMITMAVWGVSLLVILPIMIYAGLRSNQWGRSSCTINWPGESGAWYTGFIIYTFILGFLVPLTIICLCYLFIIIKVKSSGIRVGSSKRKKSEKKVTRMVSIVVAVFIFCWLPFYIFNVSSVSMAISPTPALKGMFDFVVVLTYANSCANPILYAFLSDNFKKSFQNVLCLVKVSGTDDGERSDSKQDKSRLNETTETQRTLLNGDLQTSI

[3] = MTC primary culture #1 (non responder)
[4] = MTC primary culture #2 (non responder)
[5] = MTC primary culture #3 (responder)
[6] = MTC primary culture #4 (non responder)
[7] = MTC primary culture #5 (responder)
[8] = MTC primary culture #6 (responder)
[9] = MTC primary culture #7 (responder)
[10] = MTC primary culture #8 (non responder)
[11] = MTC primary culture #9 (non responder)
[12] = MTC primary culture #10 (non responder)
[13] = MTC primary culture #11 (responder)
[14] = MTC primary culture #12 (responder)
[15] = MTC primary culture #13 (responder)
[16] = MTC primary culture #14 (responder)
[17] = MTC primary culture #15 (responder)
[18] = MTC primary culture #16 (responder)
[19] = MTC primary culture #17 (non responder)
[20] = MTC primary culture #18 (non responder)
[21] = group A (lanreotide responsive) mean

SSTR1, sequence (P30872 whole entry): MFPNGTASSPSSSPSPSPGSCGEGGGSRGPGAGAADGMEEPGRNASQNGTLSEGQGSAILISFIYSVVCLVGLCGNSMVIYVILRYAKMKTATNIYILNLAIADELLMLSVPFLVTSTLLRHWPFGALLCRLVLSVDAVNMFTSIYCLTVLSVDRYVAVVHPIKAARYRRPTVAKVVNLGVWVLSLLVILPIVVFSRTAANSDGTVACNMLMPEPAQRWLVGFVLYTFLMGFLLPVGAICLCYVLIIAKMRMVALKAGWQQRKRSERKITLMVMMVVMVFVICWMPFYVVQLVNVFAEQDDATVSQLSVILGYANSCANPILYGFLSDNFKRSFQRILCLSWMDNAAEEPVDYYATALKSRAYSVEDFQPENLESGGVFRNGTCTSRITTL
SSTR4, sequence (P31391 whole entry): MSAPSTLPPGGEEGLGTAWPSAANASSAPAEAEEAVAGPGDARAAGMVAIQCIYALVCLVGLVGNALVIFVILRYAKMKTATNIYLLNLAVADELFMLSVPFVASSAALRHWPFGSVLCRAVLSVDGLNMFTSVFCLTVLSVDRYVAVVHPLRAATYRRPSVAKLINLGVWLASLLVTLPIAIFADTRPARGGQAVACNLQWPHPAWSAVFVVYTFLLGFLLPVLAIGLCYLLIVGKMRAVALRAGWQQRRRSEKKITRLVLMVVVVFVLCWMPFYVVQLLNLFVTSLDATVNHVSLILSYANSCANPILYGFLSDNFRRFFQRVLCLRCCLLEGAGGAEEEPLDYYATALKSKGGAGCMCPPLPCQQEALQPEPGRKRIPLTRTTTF
SSTR3, sequence (P32745 whole entry): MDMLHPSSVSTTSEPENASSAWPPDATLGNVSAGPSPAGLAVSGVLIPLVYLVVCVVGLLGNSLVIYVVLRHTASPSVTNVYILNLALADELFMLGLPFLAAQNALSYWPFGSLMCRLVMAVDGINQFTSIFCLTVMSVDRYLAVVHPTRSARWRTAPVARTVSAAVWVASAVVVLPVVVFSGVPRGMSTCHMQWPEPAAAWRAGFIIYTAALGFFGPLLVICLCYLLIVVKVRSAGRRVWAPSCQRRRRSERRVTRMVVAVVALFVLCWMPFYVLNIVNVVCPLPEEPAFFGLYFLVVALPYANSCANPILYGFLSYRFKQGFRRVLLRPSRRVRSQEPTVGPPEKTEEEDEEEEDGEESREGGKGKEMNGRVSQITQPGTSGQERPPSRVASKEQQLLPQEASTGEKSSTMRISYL

Structure (SMILES): CC[C@@H]1NC(=O)[C@H](CCCCN)NC(=O)[C@@H](Cc2c[nH]c3ccccc23)NC(=O)[C@H](Cc2ccc(O)cc2)NC(=O)[C@@H](NC(=O)[C@@H](Cc2ccccc2)NC(=O)CN2CCN(CCO)CC2)CSSC[C@@H](C(=O)N[C@H](C(N)=O)[C@@H](C)O)NC1=O [4-(2-Hydroxyethyl)-1-piperazinylacetyl-D-Phe-c[Cys-Tyr-D-Trp-Lys-Abu-Cys]-Thr-NH2]
- pKi (SSTR1): 5.35
- pKi (SSTR4): 5.20

Structure (SMILES): CC(C)[C@@H]1NC(=O)[C@H](CCCCN)NC(=O)[C@@H](Cc2c[nH]c3ccccc23)NC(=O)[C@H](Cc2ccc(O)cc2)NC(=O)[C@@H](NC(=O)[C@H](N)Cc2ccc3ccccc3c2)CSSC[C@@H](C(=O)N[C@H](C(N)=O)[C@@H](C)O)NC1=O [lanreotide, D-β-Nal-c[Cys-Tyr-D-Trp-Lys-Val-Cys]-Thr-NH2, reference compound]
- pKi (SSTR3): 7.01
- suppressing calcitonin secretion (MTC): lack of efficacy
- reducing tumour size and/or increasing patient survival rate (MTC): little effect
- pKi (SSTR1): 5.67
- % cell viability reduction vs. control [1, 3]: −6.1%
- % cell viability reduction vs. control [1, 4]: −57.0%
- % cell viability reduction vs. control [1, 5]: 1.5%
- % cell viability reduction vs. control [1, 6]: −25.8%
- % cell viability reduction vs. control [1, 7]: 13.4%
- % cell viability reduction vs. control [1, 8]: 9.7%
- % cell viability reduction vs. control [1, 9]: 54.4%
- % cell viability reduction vs. control [1, 10]: −7.9%
- % cell viability reduction vs. control [1, 11]: −8.6%
- % cell viability reduction vs. control [1, 12]: 7.0%
- % cell viability reduction vs. control [1, 13]: −11.2%
- % cell viability reduction vs. control [1, 14]: 3.5%
- % cell viability reduction vs. control [1, 15]: 23.1%
- % cell viability reduction vs. control [1, 16]: 1.8%
- % cell viability reduction vs. control [1, 17]: −8.3%
- % cell viability reduction vs. control [1, 18]: −15.8%
- % cell viability reduction vs. control [1, 19]: −9.7%
- % cell viability reduction vs. control [1, 20]: −15.8%
- cell viability, change vs. control (signed, negative = reduced) [1]: −14%
- % CT secretion inhibition vs. control [2, 3]: −5.2%
- % CT secretion inhibition vs. control [2, 4]: 21.7%
- % CT secretion inhibition vs. control [2, 5]: −22.6%
- % CT secretion inhibition vs. control [2, 6]: 34.7%
- % CT secretion inhibition vs. control [2, 7]: −19.0%
- % CT secretion inhibition vs. control [2, 8]: −18.0%
- % CT secretion inhibition vs. control [2, 9]: −44.6%
- % CT secretion inhibition vs. control [2, 10]: 14.7%
- % CT secretion inhibition vs. control [2, 11]: 9.8%
- % CT secretion inhibition vs. control [2, 12]: 22.9%
- % CT secretion inhibition vs. control [2, 13]: −25.1%
- % CT secretion inhibition vs. control [2, 14]: −20.6%
- % CT secretion inhibition vs. control [2, 15]: −42.5%
- % CT secretion inhibition vs. control [2, 16]: −19.8%
- % CT secretion inhibition vs. control [2, 17]: −20.9%
- % CT secretion inhibition vs. control [2, 18]: −34.3%
- % CT secretion inhibition vs. control [2, 19]: 8.5%
- % CT secretion inhibition vs. control [2, 20]: −10.8%
- calcitonin secretion reduced / inhibited by ([2]; group A (lanreotide responders) mean): 27%
- calcitonin secretion, change vs. control (signed, negative = reduced) [2, 21]: −27%

Structure (SMILES): CC(C)[C@@H]1NC(=O)[C@H](CCCCN)NC(=O)[C@@H](Cc2c[nH]c3ccccc23)NC(=O)[C@H](Cc2ccc(O)c(I)c2)NC(=O)[C@@H](NC(=O)[C@H](N)Cc2ccccc2)CSSC[C@@H](C(=O)N[C@H](C(N)=O)[C@@H](C)O)NC1=O [Cmpd #4, D-Phe-[Cys-Tyr(I)-D-Trp-Lys-Val-Cys]-Thr-NH2]
- pKi (SSTR3): 6.88
- pKi (SSTR1): 5.99
- pKi (SSTR4): < 6.00
- % cell viability reduction vs. control [1, 3]: −14.7%
- % cell viability reduction vs. control [1, 4]: −38.3%
- % cell viability reduction vs. control [1, 5]: 13.3%
- % cell viability reduction vs. control [1, 6]: −11.3%
- % cell viability reduction vs. control [1, 7]: 24.7%
- % cell viability reduction vs. control [1, 8]: −10.8%
- % cell viability reduction vs. control [1, 9]: 5.7%
- % cell viability reduction vs. control [1, 10]: −20.6%
- % cell viability reduction vs. control [1, 11]: −32.1%
- % cell viability reduction vs. control [1, 12]: 6.5%
- % cell viability reduction vs. control [1, 13]: 1.4%
- % cell viability reduction vs. control [1, 14]: 7.4%
- % cell viability reduction vs. control [1, 15]: 9.3%
- % cell viability reduction vs. control [1, 16]: 1.3%
- % cell viability reduction vs. control [1, 17]: 12.6%
- % cell viability reduction vs. control [1, 18]: 15.0%
- % cell viability reduction vs. control [1, 19]: −2.6%
- % cell viability reduction vs. control [1, 20]: −7.7%
- cell viability, change vs. control (signed, negative = reduced) [1]: −13%
- % CT secretion inhibition vs. control [2, 3]: −10.5%
- % CT secretion inhibition vs. control [2, 4]: 5.2%
- % CT secretion inhibition vs. control [2, 5]: −33.9%
- % CT secretion inhibition vs. control [2, 6]: −10.3%
- % CT secretion inhibition vs. control [2, 7]: −15.7%
- % CT secretion inhibition vs. control [2, 8]: −12.6%
- % CT secretion inhibition vs. control [2, 9]: −42.6%
- % CT secretion inhibition vs. control [2, 10]: 3.6%
- % CT secretion inhibition vs. control [2, 11]: −5.2%
- % CT secretion inhibition vs. control [2, 12]: 12.8%
- % CT secretion inhibition vs. control [2, 13]: −15.7%
- % CT secretion inhibition vs. control [2, 14]: −18.5%
- % CT secretion inhibition vs. control [2, 15]: −42.8%
- % CT secretion inhibition vs. control [2, 16]: 8.4%
- % CT secretion inhibition vs. control [2, 17]: −30.6%
- % CT secretion inhibition vs. control [2, 18]: −16.2%
- % CT secretion inhibition vs. control [2, 19]: 12.7%
- % CT secretion inhibition vs. control [2, 20]: 5.3%
- calcitonin secretion, change vs. control (signed, negative = reduced) [2, 21]: −25%
- calcitonin secretion, change vs. control (signed, negative = reduced) ([2]; group B (lanreotide non-responsive) mean): not reduced
- pKi (SSTR2): 9.54

Structure (SMILES): C[C@@H](O)[C@@H]1NC(=O)[C@H](CCCCN)NC(=O)[C@@H](Cc2c[nH]c3ccccc23)NC(=O)[C@H](Cc2ccccc2)NC(=O)[C@@H](NC(=O)[C@H](N)Cc2ccccc2)CSSC[C@@H](C(=O)N[C@H](CO)[C@@H](C)O)NC1=O [octreotide]
- suppressing calcitonin secretion (MTC): lack of efficacy
- reducing tumour size and/or increasing patient survival rate (MTC): little effect

— US20090099094A1, “Use of Somatostatin Agonists to Treat Medullary Thyroid Carcinoma” (priority 2007, published 2009)
